What is called Km is the concentration of substrate that gives half-maximal velocity. One may read the kcat as the maximal rate divided by the concentration of active sites. What is called kcat/KM is the second-order rate constant that governs catalysis at low substrate concentration.

*1 amine or outer side, *2 acyl side, *3 side chain or, on linkers, in order; H or OH if unused. Where a SMILES comes first, the peptide text is derived from it. Bridges are numbered along the chain shown (N, C = ends). The star is where a group is joined. X1 = NC(=O)Cc1cc(=O)oc2cc(NC(=O)[C@@H]3CCCN3C(=O)Cn3nc(C[*:1])cc3C[*:2])ccc12; X2 = NC(=O)Cc1cc(=O)oc2cc(NC(=O)[C@@H]3CCCN3C(=O)Cn3nc(C[*:2])cc3C[*:1])ccc12; AMC = Cc1cc(=O)oc2cc(N*)ccc12; Cbz = O=C(OCc1ccccc1)*

The target of experiment [1] is T1, Recombinant Human Prolyl Oligopeptidase/PREP (Homo sapiens, UniProt P48147).
T1 construct: purchased R&D Systems 4308-SE-010
T1 sequence (P48147 1-710): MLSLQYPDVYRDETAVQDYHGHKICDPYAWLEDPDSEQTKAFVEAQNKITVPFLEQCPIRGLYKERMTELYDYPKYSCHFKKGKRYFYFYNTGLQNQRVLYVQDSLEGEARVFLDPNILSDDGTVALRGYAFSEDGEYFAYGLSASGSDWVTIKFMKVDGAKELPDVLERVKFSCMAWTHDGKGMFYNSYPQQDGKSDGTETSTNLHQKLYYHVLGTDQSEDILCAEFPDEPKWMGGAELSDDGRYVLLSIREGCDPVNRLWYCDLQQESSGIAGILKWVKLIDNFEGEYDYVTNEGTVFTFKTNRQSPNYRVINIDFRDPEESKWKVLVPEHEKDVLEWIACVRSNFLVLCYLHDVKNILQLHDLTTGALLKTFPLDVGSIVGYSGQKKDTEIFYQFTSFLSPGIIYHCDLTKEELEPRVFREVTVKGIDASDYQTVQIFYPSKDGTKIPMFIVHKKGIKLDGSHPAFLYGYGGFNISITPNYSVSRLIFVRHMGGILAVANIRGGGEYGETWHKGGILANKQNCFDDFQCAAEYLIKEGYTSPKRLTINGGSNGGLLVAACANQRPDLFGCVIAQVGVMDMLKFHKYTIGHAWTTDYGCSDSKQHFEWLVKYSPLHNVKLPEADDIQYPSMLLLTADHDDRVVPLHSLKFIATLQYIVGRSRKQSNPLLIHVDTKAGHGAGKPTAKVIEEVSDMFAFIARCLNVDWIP
Briefly: Kinetic evaluation of substrates. Format: biochemical. The settings on record: for SI (selectivity index, coefficient of the proteases kcat/Km), FAPα vs PREP: kcat/KM FAPα over kcat/KM PREP. The procedure:
(§1) Fluorogenic Substrate Cleavage Assay
(§2) The following proteases were used for the activity assay: Recombinant Human FAPα Protein, CF (R&D Systems, Catalog No.: 3715-SE-010), Recombinant Human Prolyl Oligopeptidase/PREP Protein, CF (R&D Systems, Catalog No.: 4308-SE-010). Recombinant Human DPP9 Protein, CF (R&D Systems, Catalog No.: 5419-SE-010). Recombinant Human DPP4 Protein (Sino Biological, Catalog No.: 10688-HNCH-10). The buffers used for the activity assay were: FAPα - 50 mM Tris, 1 M NaCl, 1 mg/mL BSA, pH 7.5, PREP- 25 mM Tris, 250 mM NaCl, 2.5 mM DTT, pH 7.5 (DTT was freshly added immediately before use), DPP9- 25 mM Tris, pH 7.5, DPP4- 25 mM Tris, pH
(§3) 7.5. The following commercial substrates were used: zGP-AMC (Bachem,Catalog No.: […]
(§4) conducted in Greiner Bio-One black microplates of 384 wells and polystyrene F-bottom (Catalog No.: 784076). All compounds were dissolved in DMSO at a concentration of 10 mM and then diluted into the respective buffer to the desired final concentration. The protease was added to the specified concentration before the fluorescence measurements. For fluorescence measurements, 2 μL of substrate was further diluted into 6 μL of buffer, followed by addition of 2 μL of enzyme in buffer. For no enzyme controls 2 μL of substrate was diluted into 8 μL of buffer.
(§5) The fluorescence was measured using a Cytation 3 plate reader (BioTek). All experiments have at least three technical replicates. All assays were conducted at 37°C for a minimum of 90 min, unless otherwise noted. Fluorescence measurements were performed at ex/em, 355/460 nm for ACC substrates. The substrates velocity was quantified by calculating the slope of the linear phase of the reaction as relative fluorescence units (RFU) per min.
(§6) Kinetic evaluation of substrates
(§7) To order to determine the kcat/KM, the previously indicated proteases were tested under their corresponding buffer conditions. Substrates were serially diluted in water, and 2 µL of each dilution was added to 6 µL of assay buffer in a 384-well plate. The plate was briefly centrifuged to ensure proper mixing and to eliminate air bubbles. Fluorescence measurements were initiated by adding 2 µL of the protease solution (prepared in activity buffer) to each well, yielding a final volume of 10 µL. Reactions were monitored at 37 °C for 60 minutes using a plate reader set to excitation/emission wavelengths of 355/460 nm. Control wells without enzyme contained 8 µL of assay buffer, instead of enzyme, and 2 µL of substrate. All measurements were performed in at least triplicate. The initial linear portion of each fluorescence progress curve was used to calculate initial reaction velocities (RFU/min). Calibration curves using free AMC were generated under the corresponding buffer and assay conditions to allow extrapolation of RFU values to µM concentrations. Michaelis-Menten kinetic parameters K M, kcat and kcat/,KM were determined using […]
(§8) GraphPad Prism version 10.4.1. […]
(§9) determined due to poor model fit. […]

In the next experiment the target is T2, Recombinant Human DPP4 (Homo sapiens, UniProt P27487).
T2 construct: purchased Sino Biological 10688-HNCH-10
Briefly: Kinetic evaluation of substrates. Type of experiment: biochemical. The settings on record: for SI (selectivity index, coefficient of the proteases kcat/Km), FAPα vs DPP4: kcat/KM FAPα over kcat/KM DPP4. The procedure: as §1, §2, §3, §4, §5, §6, §7, §8, §9

[2] abbreviates: 3 nM PREP, 37 °C, 60 min, Michaelis-Menten fit, triplicates.
Where [3] appears, read: 3 nM DPP4, 37 °C, 60 min, Michaelis-Menten fit, triplicates.
Setting [4] is: 3 nM DPP4, 37 °C, 60 min, Michaelis-Menten fit, triplicates, ± SD.

T2 sequence (P27487 whole entry): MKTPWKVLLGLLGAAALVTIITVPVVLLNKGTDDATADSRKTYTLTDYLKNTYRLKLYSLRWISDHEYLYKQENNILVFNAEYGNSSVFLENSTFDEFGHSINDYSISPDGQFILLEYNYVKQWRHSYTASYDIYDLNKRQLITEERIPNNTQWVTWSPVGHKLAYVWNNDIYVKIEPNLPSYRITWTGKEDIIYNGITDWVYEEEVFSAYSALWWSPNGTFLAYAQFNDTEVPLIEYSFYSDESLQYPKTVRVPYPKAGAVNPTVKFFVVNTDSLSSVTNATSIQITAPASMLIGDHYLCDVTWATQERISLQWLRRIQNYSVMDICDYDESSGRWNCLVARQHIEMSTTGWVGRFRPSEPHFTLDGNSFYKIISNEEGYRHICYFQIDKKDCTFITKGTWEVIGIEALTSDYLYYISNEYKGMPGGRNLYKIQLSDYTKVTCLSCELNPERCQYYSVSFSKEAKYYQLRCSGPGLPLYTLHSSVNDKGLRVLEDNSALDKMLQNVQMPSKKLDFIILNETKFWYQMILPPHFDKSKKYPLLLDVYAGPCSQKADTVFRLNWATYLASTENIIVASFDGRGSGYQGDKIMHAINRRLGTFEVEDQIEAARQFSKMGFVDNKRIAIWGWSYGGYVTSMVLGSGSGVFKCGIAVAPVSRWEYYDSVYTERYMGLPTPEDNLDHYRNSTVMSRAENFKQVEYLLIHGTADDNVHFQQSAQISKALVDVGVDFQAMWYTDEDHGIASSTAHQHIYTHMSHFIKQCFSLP

In the case of `Cc1cc(=O)oc2cc(NC(=O)[C@@H]3CCCN3C(=O)CNC(=O)OCc3ccccc3)ccc12` [zGP-AMC] (Cbz-Gly-Pro-{AMC}), the Michaelis-Menten constant (Km) in experiment [1] (3 nM PREP, 25 mM Tris, 250 mM NaCl, 2.5 mM DTT, pH 7.5, 37 °C, 60 min, triplicates, ± SD, FAP33.2 and FAP33.2A6 showed substrate inhibition) is 161 ± 91 µM. In experiment [1] (setting [2]), the kcat was found to be 113.05 s⁻¹ and the catalytic efficiency (kcat/KM) was 633723 M⁻¹ s⁻¹. Also, in experiment [1], the “SI (selectivity index, coefficient of the proteases kcat/Km), FAPα vs PREP” value is 0.24.

Consider `CC(C)C[C@@H]1NC(=O)[C@H](CC(N)=O)NC(=O)[C@H](CCC(N)=O)NC(=O)[C@H](Cc2ccccc2)NC(=O)[C@H](CO)NC(=O)[C@H](C(C)C)NC(=O)[C@@H](N)CSCc2cc(nn2CC(=O)N2CCC[C@H]2C(=O)Nc2ccc3c(CC(N)=O)cc(=O)oc3c2)CSC[C@@H](C(=O)NCC(N)=O)NC(=O)[C@H](CC(=O)O)NC1=O` [FAP-33.2] (H-CVSFQNLDCG-NH2; linker 1-9 via X2; N-terminus assumed), for which the “SI (selectivity index, coefficient of the proteases kcat/Km), FAPα vs PREP” value in experiment [1] is “FAPα >>>PREP”. At Recombinant Human DPP4, the “SI (selectivity index, coefficient of the proteases kcat/Km), FAPα vs DPP4” value was “FAPα >>>DPP4”.

Turning to `CC(C)[C@@H]1NC(=O)[C@@H](N)CSCc2cc(n(CC(=O)N3CCC[C@H]3C(=O)Nc3ccc4c(CC(N)=O)cc(=O)oc4c3)n2)CSC[C@@H](C(=O)NCC(N)=O)NC(=O)[C@H](CC(=O)O)NC(=O)[C@H](C)NC(=O)[C@H](CC(N)=O)NC(=O)[C@H](CCC(N)=O)NC(=O)[C@H](Cc2ccccc2)NC(=O)[C@H](CO)NC1=O` [FAP-33.2A6] (H-CVSFQNADCG-NH2; linker 1-9 via X1; N-terminus assumed), the Ki in experiment [1] (3 nM PREP, substrate inhibition, 37 °C) was 34.4 µM. The “SI (selectivity index, coefficient of the proteases kcat/Km), FAPα vs PREP” value in experiment [1] is listed as “FAPα >>>PREP”. In addition, at Recombinant Human DPP4 (setting [3]), the kcat/KM came to 5168 M⁻¹ s⁻¹. Further, the turnover number (kcat) on Recombinant Human DPP4 (setting [4]) is 0.460 ± 0.018 s⁻¹. Also, the “SI (selectivity index, coefficient of the proteases kcat/Km), FAPα vs DPP4” value on Recombinant Human DPP4 worked out at 6.

On to `Cc1cc(=O)oc2cc(NC(=O)[C@@H]3CCCN3C(=O)CN)ccc12` [GP-AMC] (H-Gly-Pro-{AMC}), for which, in experiment [1] (kcat/KM DPP4 over kcat/KM PREP), the “SI (selectivity index, coefficient of the proteases kcat/Km), DPP4 vs PREP” value was “DPP4>>>PREP”. On Recombinant Human DPP4 (3 nM DPP4, 25 mM Tris, pH 7.5, 37 °C, 60 min, ex/em 355/460 nm, Michaelis-Menten fit, triplicates, ± SD), the Km was 52 ± 4 µM. At Recombinant Human DPP4 (setting [3]), the kcat/KM worked out at 380000 M⁻¹ s⁻¹. Also, at Recombinant Human DPP4 (setting [4]), the kcat was determined as 19.9 ± 0.6 s⁻¹.
